Measured values as given in the NIST ThermoML archive (doi:10.1021/acs.jced.5b00242).

Columns and labels:
[1] = refractive index (Na D-line) (dimensionless); xn = mol fraction of the nth substance listed; conditions: 101 kPa, Liquid, Standard Abbe refractometry
[2] = xn = mol fraction of the nth substance listed; conditions: 101 kPa, Liquid; for viscosity: Stabinger Viscometer; for mass density: Vibrating tube method

CCn1cc[n+](C)c1.NCCS(=O)(=O)[O-] [1-ethyl-3-methylimidazolium taurinate] + CCn1cc[n+](C)c1.N#C[C-](C#N)C#N
Conditions	mass density, [2] [kg/m3]	refractive index, [1]	viscosity, [2] [mPa·s]
293.15 K, x2 = 0	1255	1.5135	760.89
293.15 K, x2 = 0.2503	1207.7	1.51268	250.33
293.15 K, x2 = 0.5001	1164.8	1.51322	84.5
293.15 K, x2 = 0.7496	1124.1	1.51365	35.42
298.15 K, x2 = 0	1251.5	1.51217	514.67
298.15 K, x2 = 0.2503	1204.4	1.51131	180.68
298.15 K, x2 = 0.5001	1161.4	1.51166	64.77
298.15 K, x2 = 0.7496	1120.6	1.5121	28.77
303.15 K, x2 = 0	1248.1	1.51084	359.36
303.15 K, x2 = 0.2503	1201.1	1.50995	133.6
303.15 K, x2 = 0.5001	1158	1.5102	50.77
303.15 K, x2 = 0.7496	1117.2	1.51054	23.71
308.15 K, x2 = 0	1244.8	1.5095	258.04
308.15 K, x2 = 0.2503	1197.9	1.50858	101.33
308.15 K, x2 = 0.5001	1154.7	1.50871	40.59
308.15 K, x2 = 0.7496	1113.8	1.50894	19.84
313.15 K, x2 = 0	1241.6	1.50816	190.44
313.15 K, x2 = 0.2503	1194.7	1.50716	78.59
313.15 K, x2 = 0.5001	1151.4	1.50723	33.04
313.15 K, x2 = 0.7496	1110.4	1.50736	16.61
318.15 K, x2 = 0	1238.6	1.5068	143.31
318.15 K, x2 = 0.2503	1191.7	1.50578	61.69
318.15 K, x2 = 0.5001	1148.2	1.50574	27.27
318.15 K, x2 = 0.7496	1107.2	1.50576	14.44
323.15 K, x2 = 0	1235.5	1.50543	110.35
323.15 K, x2 = 0.2503	1188.5	1.50436	49.65
323.15 K, x2 = 0.5001	1145	1.50428	22.83
323.15 K, x2 = 0.7496	1103.8	1.5042	12.51
328.15 K, x2 = 0	1232.4	1.50403	86.59
328.15 K, x2 = 0.2503	1185.3	1.50296	40.56
328.15 K, x2 = 0.5001	1141.7	1.50286	19.37
328.15 K, x2 = 0.7496	1100.5	1.50267	10.94
333.15 K, x2 = 0	1229.2	1.5027	69.36
333.15 K, x2 = 0.2503	1182.1	1.50159	33.69
333.15 K, x2 = 0.5001	1138.4	1.50142	16.6
333.15 K, x2 = 0.7496	1097.2	1.50113	9.52
338.15 K, x2 = 0	1226.1	1.50136	56.05
338.15 K, x2 = 0.2503	1179	1.50019	28.15
338.15 K, x2 = 0.5001	1135.2	1.49996	14.4
338.15 K, x2 = 0.7496	1093.9	1.49959	8.62
343.15 K, x2 = 0	1223	1.49997	46.1
343.15 K, x2 = 0.2503	1175.9	1.49878	23.86
343.15 K, x2 = 0.5001	1132	1.49854	12.59
343.15 K, x2 = 0.7496	1090.6	1.4981	7.72
348.15 K, x2 = 0	1219.9	1.4986	38.4
348.15 K, x2 = 0.2503	1172.7	1.49742	20.46
348.15 K, x2 = 0.5001	1128.8	1.49709	11.1
348.15 K, x2 = 0.7496	1087.3	1.49657	6.96
353.15 K, x2 = 0	1216.8	1.49726	32.53
353.15 K, x2 = 0.2503	1169.4	1.49603	17.79
353.15 K, x2 = 0.5001	1125.6	1.49563	9.83
353.15 K, x2 = 0.7496	1083.9	1.49505	6.19
